# Assay results published in PMC8961646, “Fibroblast Activation Protein Specific Optical Imaging in Non-Small Cell Lung Cancer” (Frontiers in Oncology, 2022).
# Non-standard residues stand in square brackets, D forms with d. Residues, ends and D or L forms follow the SMILES beside them. *: point of attachment. 5FAM = O=C1OC2(c3ccc(O)cc3Oc3cc(O)ccc32)c2ccc(C(=O)*)cc21; MethylRed = CN(C)c1ccc(/N=N/c2ccccc2C(=O)*)cc1; AEEA = NCCOCCOCC(=O)O
# Key:
# rhPREP = target: T1, rhPREP (Homo sapiens, UniProt P48147); test: Probe cleavage by recombinant human PREP (fluorescence plate assay, MALDI confirmation); type: biochemical
# T1 construct: purchased R&D Systems
# T1 sequence (P48147 1-710): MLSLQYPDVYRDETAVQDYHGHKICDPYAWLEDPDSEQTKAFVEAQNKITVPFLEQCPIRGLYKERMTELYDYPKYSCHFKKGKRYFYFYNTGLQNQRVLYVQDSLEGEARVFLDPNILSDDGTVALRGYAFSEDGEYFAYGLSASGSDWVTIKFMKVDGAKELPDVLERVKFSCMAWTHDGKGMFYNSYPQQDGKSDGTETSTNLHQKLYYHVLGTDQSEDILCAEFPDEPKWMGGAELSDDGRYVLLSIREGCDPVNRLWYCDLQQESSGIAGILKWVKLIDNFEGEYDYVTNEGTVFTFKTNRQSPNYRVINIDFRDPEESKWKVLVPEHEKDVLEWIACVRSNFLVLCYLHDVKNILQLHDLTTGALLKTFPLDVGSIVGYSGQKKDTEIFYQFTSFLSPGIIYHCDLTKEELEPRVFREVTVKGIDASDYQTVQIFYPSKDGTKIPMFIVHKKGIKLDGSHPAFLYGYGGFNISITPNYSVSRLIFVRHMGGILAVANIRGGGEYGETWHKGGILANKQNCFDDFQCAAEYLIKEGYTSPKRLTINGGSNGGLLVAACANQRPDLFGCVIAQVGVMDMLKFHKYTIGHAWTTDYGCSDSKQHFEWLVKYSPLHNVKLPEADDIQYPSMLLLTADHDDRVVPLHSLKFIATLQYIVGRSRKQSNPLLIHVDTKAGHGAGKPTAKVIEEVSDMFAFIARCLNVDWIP
# rhFAP = target: T2, rhFAP (Homo sapiens, UniProt Q12884); test: Enzyme kinetics with varying concentrations of substrate FAP3 in presence of rhFAP; type: biochemical; settings: increasing concentrations of substrate FAP3 with rhFAP; value (SE)
# T2 construct: purchased R&D Systems
# T2 sequence (Q12884 26-760 limits assumed): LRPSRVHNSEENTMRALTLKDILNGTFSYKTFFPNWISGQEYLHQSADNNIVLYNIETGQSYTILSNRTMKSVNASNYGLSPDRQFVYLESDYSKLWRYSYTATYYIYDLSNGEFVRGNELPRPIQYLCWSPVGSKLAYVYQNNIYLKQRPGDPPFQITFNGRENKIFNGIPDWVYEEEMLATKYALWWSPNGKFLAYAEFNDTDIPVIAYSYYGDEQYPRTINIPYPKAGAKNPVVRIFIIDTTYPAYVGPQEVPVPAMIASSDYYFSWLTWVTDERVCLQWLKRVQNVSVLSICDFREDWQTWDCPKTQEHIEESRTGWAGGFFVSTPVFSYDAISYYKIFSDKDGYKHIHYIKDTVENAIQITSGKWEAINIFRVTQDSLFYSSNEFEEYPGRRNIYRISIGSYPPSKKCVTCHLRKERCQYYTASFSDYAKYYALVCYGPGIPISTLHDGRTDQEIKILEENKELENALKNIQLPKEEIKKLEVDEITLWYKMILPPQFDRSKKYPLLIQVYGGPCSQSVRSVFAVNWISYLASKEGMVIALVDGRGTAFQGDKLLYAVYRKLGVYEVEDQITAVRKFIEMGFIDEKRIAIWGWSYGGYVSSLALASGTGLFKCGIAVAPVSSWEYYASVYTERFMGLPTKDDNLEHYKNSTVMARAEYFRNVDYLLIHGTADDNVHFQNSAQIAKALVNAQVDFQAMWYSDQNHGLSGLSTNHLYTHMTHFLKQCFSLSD
# Procedure: A calibration curve was determined using the FAP3 concentration (C-terminal cleavage fragment) against RFU to calculate the enzyme kinetic data and is shown below.
compound,measurement,setting,value
CC(C)[C@H](NC(=O)[C@@H](N)CCCCNC(=O)c1ccccc1/N=N/c1ccc(N(C)C)cc1)C(=O)N[C@H](CO)C(=O)N1CCC[C@H]1C(=O)N[C@@H](CC(N)=O)C(=O)N[C@@H](CCC(N)=O)C(=O)NCC(=O)N[C@@H](CCCCNC(=O)c1ccc2c(c1)C(=O)OC21c2ccc(O)cc2Oc2cc(O)ccc21)C(=O)NCCOCCOCC(=O)N[C@H](CCCCN)C(=O)NCCOCCOCC(=O)N[C@H](CCCCN)C(=O)NCCOCCOCC(=O)N[C@H](CCCCN)C(N)=O [FAP3] (H-K(MethylRed)V[dS]PNQGK(5FAM)[AEEA][dK][AEEA][dK][AEEA][dK]-NH2),Cleavage by rhPREP by MALDI,rhPREP; MALDI-TOF read-out,no cleavage
same,Cleavage by rhPREP (fluorescence signal),"rhPREP; probe 5 µM, rhPREP 0.1 µg/ml, TRIS buffer pH 7.5, read 480/530 nm, n=3 run in triplicate",no rhPREP cleavage
same,Vmax,rhFAP,109.5 RFU/min
